Assay results from patent US20240294543A1, “CYCLOHEPTA-THIENO-DIAZEPINE DERIVATIVES AS GABA A GAMMA1 PAM” (Hoffmann-La Roche Inc., priority 2021, published 2024).
Like-named read-outs stand apart in the source and are kept apart here.

What was measured:
[1] = target: human GABAA α1β2γ1 receptor (Homo sapiens (Human), UniProt P14867+Q8N1C3); test: Radioligand binding assay, competition for [3H]RO7239181, γ1-containing GABAA subtypes
[2] = target: human GABAA α2β2γ1 receptor (Homo sapiens (Human), UniProt P47869+Q8N1C3); test: as above
[3] = target: human GABAA α1β3γ2 receptor (Homo sapiens (Human), UniProt P14867+P18507); test: Radioligand binding assay, competition for [3H]Flumazenil, γ2-containing GABAA subtypes; conditions: for γ2/γ1 Selectivity Ratio: Ki α1β3γ2 (nM)/Ki α2β2γ1 (nM); for LogSel: Log[Ki α1β3γ2 (nM)/Ki α2β2γ1 (nM)]
Summary of the method: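 Competition against [3H]Flumazenil binding in HEK293F cells transiently expressing human α1β3γ2 receptors, pellets resuspended in mannitol buffer pH 7,2-7,4. Incubated to equilibrium 1 hour at 4° C, filtered and washed with ice-cold 50 mM Tris pH 7.5, bound radioactivity by liquid scintillation counting. Ki values are means of two determinations.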

[4] = Ki h-GABAA α1β2γ1, membranes of HEK293F cells, [3H]RO7239181 20-30 nM, Table 1
[5] = Ki h-GABAA α2β2γ1, membranes of HEK293F cells, [3H]RO7239181 20-30 nM, Table 1
[6] = Ki h-GABAA α2β2γ1, membranes of HEK293F cells, [3H]RO7239181 20-30 nM, Table 2
[7] = membranes of HEK293F cells, [3H]RO7239181 20-30 nM, Table 1, read-out: Ki h-GABAA α1β2γ1
[8] = HEK293F cells, [3H]Flumazenil 1 nM, Table 1, read-out: Ki h-GABAA α1β3γ2

Compound | Ki [1, 4] | Ki [2, 5] | Ki [2, 6] | Ki [3] | γ2/γ1 Selectivity Ratio ([3]; Table 1) | LogSel ([3]; Table 1) | Ki [1, 7] | Ki [3, 8] | Ki ([1]; Ki h-GABAA α1β2γ1, Table 3, reference compounds and examples) | Ki ([2]; Ki h-GABAA α2β2γ1, Table 3, reference compounds and examples) | γ2/γ1 Selectivity Ratio ([3]; Table 3) | LogSel ([3]; Table 3)
Cc1nnc2n1-c1sc3c(c1C(c1c(F)cccc1Cl)=N[C@H]2C)COCCO3 [Example 35, (7S)-9-(2-chloro-6-fluoro-phenyl)-3,7-dimethyl-13,16-dioxa-18-thia-2,4,5,8-tetrazatetracyclo[8.8.0.02,6.011,17]octadeca-1(10),3,5,8,11(17)-pentaene] | 47.2 nM | 18.8 nM | 18.8 nM | 3940 nM | 209.5 | 2.32 | – | – | – | – | – | –
C[C@@H]1N=C(c2c(F)cccc2F)c2c(sc3c2COC[C@H](C)O3)-n2nc(C(=O)N3CC(F)C3)nc21 [Example 40, [(7S,15S)-9-(2,6-difluorophenyl)-7,15-dimethyl-13,16-dioxa-18-thia-2,3,5,8-tetrazatetracyclo[8.8.0.02,6.011,17]octadeca-1(10),3,5,8,11(17)-pentaen-4-yl]-(3-fluoroazetidin-1-yl)methanone] | – | 20.5 nM | 20.5 nM | – | 568.5 | 2.75 | 286 nM | 11600 nM | – | – | – | –
C[C@@H]1N=C(c2c(F)cccc2F)c2c(sc3c2COCCO3)-n2nc(C(=O)NCC(C)(C)O)nc21 [Example 45, (7S)-9-(2,6-difluorophenyl)-N-(2-hydroxy-2-methyl-propyl)-7-methyl-13,16-dioxa-18-thia-2,3,5,8-tetrazatetracyclo[8.8.0.02,6.011,17]octadeca-1(10),3,5,8,11(17)-pentaene-4-carboxamide] | – | 13.6 nM | 13.6 nM | – | 232.1 | 2.37 | 103 nM | 3150 nM | – | – | – | –
C[C@@H]1N=C(c2c(F)cccc2F)c2c(sc3c2COCCO3)-n2nc(C(=O)NC[C@@](C)(O)C(F)(F)F)nc21 [Example 46, (7S)-9-(2,6-difluorophenyl)-7-methyl-N-[(2R)-3,3,3-trifluoro-2-hydroxy-2-methyl-propyl]-13,16-dioxa-18-thia-2,3,5,8-tetrazatetracyclo[8.8.0.02,6.011,17]octadeca-1(10),3,5,8,11(17)-pentaene-4-carboxamide] | 60 nM | 15.2 nM | 15.2 nM | – | 284.3 | 2.45 | – | 4320 nM | – | – | – | –
C[C@@H]1N=C(c2c(F)cccc2F)c2c(sc3c2COCCO3)-n2nc(C(=O)NC[C@](C)(O)C(F)(F)F)nc21 [Example 47, (7S)-9-(2,6-difluorophenyl)-7-methyl-N-[(2S)-3,3,3-trifluoro-2-hydroxy-2-methyl-propyl]-13,16-dioxa-18-thia-2,3,5,8-tetrazatetracyclo[8.8.0.02,6.011,17]octadeca-1(10),3,5,8,11(17)-pentaene-4-carboxamide] | 93.4 nM | 20.3 nM | 20.3 nM | – | 174.6 | 2.24 | – | 3540 nM | – | – | – | –
Cc1nnc2n1-c1sc3c(c1C(c1c(F)cccc1F)=N[C@H]2C)COCCC3 [Example 52, (7S)-9-(2,6-difluorophenyl)-3,7-dimethyl-13-oxa-18-thia-2,4,5,8-tetrazatetracyclo[8.8.0.02,6.011,17]octadeca-1(10),3,5,8,11(17)-pentaene] | 75.3 nM | 27.7 nM | 27.7 nM | 2780 nM | 100.3 | 2.00 | – | – | 75.3 nM | 27.7 nM | 100.3 | 2.0
Cc1nnc2n1-c1sc3c(c1C(c1c(F)cccc1Cl)=N[C@H]2C)COCCC3 [Example 61, (7S)-9-(2-chloro-6-fluoro-phenyl)-3,7-dimethyl-13-oxa-18-thia-2,4,5,8-tetrazatetracyclo[8.8.0.02,6.011,17]octadeca-1(10),3,5,8,11(17)-pentaene] | 49.1 nM | 20.6 nM | 20.6 nM | 2520 nM | 122.4 | 2.09 | – | – | – | – | – | –
